Data set [1] concerns the target T1, rat histamine H3 receptor (Rattus norvegicus, UniProt Q9QYN8).
T1 construct: encoding the entire 445-amino-acid rat histamine H3 receptor; expressed in transfected cells; membrane preparation
Put plainly: Rat H3 radioligand binding ([3H]-N-alpha-methylhistamine, SPA). The following applies: Table C, rat H3 binding, read-out: Rat H3 Ki. The essentials: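 SPA-bead binding assay using [3H]-N-alpha-methylhistamine (approximately 1 nM final) with test compounds from 0.01 nM to 30 μM. Rat H3 receptor membranes came from stably transfected CHO-A3 cells; incubation ran 4 h at room temperature, in the dark, in Tris pH 7.4 buffer with MgCl2 and BSA. Clobenpropit (10 μM) gave non-specific binding.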

A further data set deals with T2, human H3 receptor (Homo sapiens, UniProt Q9Y5N1).
T2 construct: expressed in transfected cells
T2 sequence (Q9Y5N1 whole entry): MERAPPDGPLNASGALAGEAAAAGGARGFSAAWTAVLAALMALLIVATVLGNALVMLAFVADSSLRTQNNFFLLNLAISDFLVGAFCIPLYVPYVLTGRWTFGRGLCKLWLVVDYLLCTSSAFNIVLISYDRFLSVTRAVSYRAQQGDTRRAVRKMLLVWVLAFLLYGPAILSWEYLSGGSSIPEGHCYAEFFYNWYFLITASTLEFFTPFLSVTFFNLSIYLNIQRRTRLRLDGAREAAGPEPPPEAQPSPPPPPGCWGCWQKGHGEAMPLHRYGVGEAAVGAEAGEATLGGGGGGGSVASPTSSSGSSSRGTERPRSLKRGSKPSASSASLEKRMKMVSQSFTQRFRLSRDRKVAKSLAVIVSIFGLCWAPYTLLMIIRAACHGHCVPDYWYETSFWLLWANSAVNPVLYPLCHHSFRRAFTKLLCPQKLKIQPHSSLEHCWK
In words: Human H3 radioligand binding ([3H]-N-alpha-methylhistamine, SPA). The following applies: Table C; human H3 binding; read-out: Human H3 Ki. The essentials:
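Compounds (0.01 nM-30 μM) competed with approximately 1 nM [3H]-N-alpha-methylhistamine for human H3 receptor in membranes of stably transfected CHO cells, 10 μg protein per well, in Tris-HCl pH 7.4/MgCl2/BSA buffer for 4 h at room temperature. Bound radioligand measured by scintillation proximity; 10 μM clobenpropit gave non-specific binding.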

Where two headings read alike, the source gives them in different places. Bounds are passed on as bounds.

T1 sequence (Q9QYN8 whole entry): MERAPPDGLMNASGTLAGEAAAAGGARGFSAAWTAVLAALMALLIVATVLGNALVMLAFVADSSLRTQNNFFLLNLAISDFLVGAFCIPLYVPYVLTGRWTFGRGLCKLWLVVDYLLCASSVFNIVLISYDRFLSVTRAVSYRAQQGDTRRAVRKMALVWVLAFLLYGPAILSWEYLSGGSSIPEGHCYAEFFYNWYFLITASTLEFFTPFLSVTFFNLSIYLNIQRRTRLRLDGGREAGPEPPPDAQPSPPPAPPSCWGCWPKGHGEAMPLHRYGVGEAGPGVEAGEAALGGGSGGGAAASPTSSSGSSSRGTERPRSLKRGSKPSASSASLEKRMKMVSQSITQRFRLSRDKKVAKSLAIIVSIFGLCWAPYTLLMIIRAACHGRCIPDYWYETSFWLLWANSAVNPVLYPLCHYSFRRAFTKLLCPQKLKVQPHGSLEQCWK

In general, Ki refers to a measure of affinity in units of concentration, obtained from inhibition or displacement. As usually defined, the melting point is the temperature, or range, at which the solid turns liquid. Regarding `O=C(C1CC1)N1CCN(c2ccc3c(c2)CCC2(CCN(C4CCC4)CC2)O3)CC1` [Example 376], the melting point was 169 to 171 °C. Further, in data set [1], the Ki is less than 200 nM. Besides, the Ki at human H3 receptor was less than 200 nM.
`c1cc2c(cc1N1CCNCC1)CCC1(CCN(C3CCC3)CC1)O2` [Example 377] had a melting point of 116 to 118 °C. For the same compound, in data set [1], the Ki is less than 200 nM. In addition, the Ki at human H3 receptor was less than 200 nM.
In turn, `CC(C)C(=O)N1CCN(c2ccc3c(c2)CCC2(CCN(C4CCC4)CC2)O3)CC1` [Example 381] yielded a melting point of 173 to 175 °C. Further, the Ki in data set [1] is less than 200 nM. In addition, the Ki at human H3 receptor was less than 200 nM.
As for `COc1cccc(N2CCN(c3ccc4c(c3)CCC3(CCN(C5CCC5)CC3)O4)CC2)n1` [Example 382], the melting point fell in the range of 243 to 245 °C. The Ki in data set [1] is less than 200 nM. Moreover, the Ki on human H3 receptor is less than 200 nM.
As to `CS(=O)(=O)c1ccc(N2CCN(c3ccc4c(c3)CCC3(CCN(C5CCC5)CC3)O4)CC2)nc1` [Example 383], the melting point is 258 to 260 °C. Besides, the inhibitory constant (Ki) in data set [1] is less than 200 nM. For the same compound, at human H3 receptor, the Ki was less than 200 nM.
Compound `CCOC(=O)C1CCN(c2ccc3c(c2)CCC2(CCN(C4CCC4)CC2)O3)CC1` [Example 384] showed a melting point of 256 to 258 °C. For the same compound, the inhibition constant (Ki) in data set [1] was less than 200 nM. For the same compound, at human H3 receptor, the Ki was less than 200 nM.
The compound `COC(=O)c1ccc(N2CCN(c3ccc4c(c3)CCC3(CCN(C5CCC5)CC3)O4)CC2)nc1` [Example 385] registered a melting point of 202 to 203 °C. Also, the Ki in data set [1] is less than 200 nM. In addition, the Ki on human H3 receptor was less than 200 nM.
For the compound `O=C(N1CCOCC1)N1CCN(c2ccc3c(c2)CCC2(CCN(C4CCC4)CC2)O3)CC1` [Example 386], the melting point was 292 to 294 °C. For the same compound, the Ki in data set [1] was less than 200 nM. Besides, the Ki on human H3 receptor is less than 200 nM.
In turn, `O=C(c1ccco1)N1CCN(c2ccc3c(c2)CCC2(CCN(C4CCC4)CC2)O3)CC1` [Example 387] displayed a melting point of 133 to 135 °C. Besides, the Ki in data set [1] was less than 200 nM. The Ki at human H3 receptor was less than 200 nM.
On to `O=C(N1CCCC1)N1CCN(c2ccc3c(c2)CCC2(CCN(C4CCC4)CC2)O3)CC1` [Example 388], for which the melting point fell in the range of 165 to 167 °C. Besides, the Ki in data set [1] is less than 200 nM. The Ki on human H3 receptor was less than 200 nM.
`Clc1ccc(N2CCN(c3ccc4c(c3)CCC3(CCN(C5CCC5)CC3)O4)CC2)nn1` [Example 389] yielded a melting point of 229 to 231 °C. The Ki in data set [1] is less than 200 nM. Moreover, on human H3 receptor, the Ki is less than 200 nM.
On to `NC(=O)c1ccc(Oc2ccc3c(c2)CCC2(CCN(C4CCC4)CC2)O3)nc1` [Example 390], for which the melting point lay within 191 to 193 °C. Moreover, in data set [1], the Ki was less than 200 nM. For the same compound, the Ki at human H3 receptor is less than 200 nM.
With `CCOC1CCN(c2ccc3c(c2)CCC2(CCN(C4CCC4)CC2)O3)CC1` [Example 391], the melting point lay in the range of 285 to 290 °C. The Ki in data set [1] was less than 200 nM. In addition, the Ki at human H3 receptor is less than 200 nM.
In turn, `CN(C)C(=O)N1CCN(c2ccc3c(c2)CCC2(CCN(C4CCC4)CC2)O3)CC1` [Example 392] returned a melting point of 272 to 274 °C. Besides, the Ki in data set [1] is less than 200 nM. Also, on human H3 receptor, the Ki is less than 200 nM.
`c1cc2c(cc1N1CCCCC1)CCC1(CCN(C3CCC3)CC1)O2` [Example 393]: the melting point was > 280 °C (dec.). Also, the Ki in data set [1] was less than 200 nM. In addition, the Ki on human H3 receptor was less than 200 nM.
`CCN(CC)C(=O)N1CCN(c2ccc3c(c2)CCC2(CCN(C4CCC4)CC2)O3)CC1` [Example 394] returned a melting point of 272 to 274 °C. In data set [1], the Ki was less than 200 nM. Also, the Ki at human H3 receptor is less than 200 nM.
In turn, `CC(=O)N1CCCN(c2ccc3c(c2)CCC2(CCN(C4CCC4)CC2)O3)CC1` [Example 395] registered a melting point of 276 to 278 °C. The Ki in data set [1] is less than 200 nM. Besides, the Ki at human H3 receptor is less than 200 nM.
Compound `CNC(=O)C1CCN(c2ccc3c(c2)CCC2(CCN(C4CCC4)CC2)O3)CC1` [Example 396] yielded a melting point of 264 to 267 °C. Further, the Ki in data set [1] was less than 200 nM. Besides, the Ki on human H3 receptor is less than 200 nM.
Take `FC1CCN(c2ccc3c(c2)CCC2(CCN(C4CCC4)CC2)O3)CC1` [Example 397]: the melting point was > 265 °C (dec.). Moreover, the Ki in data set [1] was less than 200 nM. In addition, the Ki on human H3 receptor was less than 200 nM.
`c1cc2c(cc1N1CCC3(CC1)OCCO3)CCC1(CCN(C3CCC3)CC1)O2` [Example 398] came in with a melting point of 135 to 137 °C. For the same compound, the Ki in data set [1] was less than 200 nM. Further, on human H3 receptor, the Ki was less than 200 nM.
Turning to `O=C1CCN(c2ccc3c(c2)CCC2(CCN(C4CCC4)CC2)O3)CC1` [Example 399], the melting point was > 247 °C (dec.). Further, the Ki in data set [1] is less than 200 nM. Moreover, the Ki on human H3 receptor is less than 200 nM.
For the compound `c1cnc(Oc2ccc3c(c2)CCC2(CCN(C4CCC4)CC2)O3)nc1` [Example 400], the melting point fell in the range of 258 to 260 °C. In addition, the Ki in data set [1] (given as numeric bound) was greater than 300 nM. Also, the Ki at human H3 receptor was in the range of 200 to 1000 nM.
`CNC(=O)c1ccc(Oc2ccc3c(c2)CCC2(CCN(C4CCC4)CC2)O3)nc1` [Example 401] showed a melting point of 245 to 247 °C. In addition, the Ki in data set [1] was less than 200 nM. At human H3 receptor, the Ki is less than 200 nM.
In the case of `c1cc2c(cc1N1CCOCC1)CCC1(CCN(C3CCC3)CC1)O2` [Example 403], the melting point is > 285 °C (dec.). Besides, the Ki in data set [1] is less than 200 nM. Besides, the Ki on human H3 receptor was less than 200 nM.
Consider `FC1(F)CCN(c2ccc3c(c2)CCC2(CCN(C4CCC4)CC2)O3)CC1` [Example 404], for which the melting point is > 283 °C (dec.). For the same compound, the Ki in data set [1] was less than 200 nM. Moreover, on human H3 receptor, the Ki is less than 200 nM.
With `OC1CCN(c2ccc3c(c2)CCC2(CCN(C4CCC4)CC2)O3)CC1` [Example 405], the melting point was > 265 °C (dec.). In addition, the Ki in data set [1] is less than 200 nM. For the same compound, on human H3 receptor, the Ki is less than 200 nM.
As for `O=S1(=O)CCN(c2ccc3c(c2)CCC2(CCN(C4CCC4)CC2)O3)CC1` [Example 406], the melting point is > 285 °C (dec.). In data set [1], the Ki was less than 200 nM. On human H3 receptor, the Ki was less than 200 nM.
Take `CN(C)C(=O)c1ccc(Oc2ccc3c(c2)CCC2(CCN(C4CCC4)CC2)O3)nc1` [Example 407]: the melting point was 267 to 269 °C. For the same compound, in data set [1], the Ki is 200 to 1000 nM. Moreover, the Ki at human H3 receptor was less than 200 nM.
On the same counts, the results for `CNC(=O)c1ccc(N2CCN(c3ccc4c(c3)CCC3(CCN(C5CCC5)CC3)O4)CC2)nc1` [Example 409] are 297 to 299 °C, less than 200 nM and less than 200 nM.
On the same counts, the results for `c1ccc(OC2CCN(c3ccc4c(c3)CCC3(CCN(C5CCC5)CC3)O4)CC2)nc1` [Example 412] are 240 to 245 °C, less than 200 nM and less than 200 nM.
Consider `FC1(F)CCN(c2ccc3c(c2)CCC2(CCN(C4CCC4)CC2)O3)C1` [Example 413], for which the melting point is > 275 °C (dec.). Besides, the Ki in data set [1] was less than 200 nM. Further, at human H3 receptor, the Ki was less than 200 nM.
`F[C@@H]1CCN(c2ccc3c(c2)CCC2(CCN(C4CCC4)CC2)O3)C1` [Example 414] yielded a melting point of 275 to 280 °C. Further, the Ki in data set [1] was less than 200 nM. In addition, the Ki on human H3 receptor was less than 200 nM.
In turn, `c1cnc(Oc2ccc3c(c2)CCC2(CCN(C4CCC4)CC2)O3)cn1` [Example 415] came in with a melting point of 256 to 258 °C. In data set [1], the Ki is less than 200 nM. Also, on human H3 receptor, the Ki is less than 200 nM.
`COCCNC(=O)c1ccc(Oc2ccc3c(c2)CCC2(CCN(C4CCC4)CC2)O3)nc1` [Example 416]: the melting point lay within 235 to 237 °C. Further, the Ki in data set [1] is less than 200 nM. At human H3 receptor, the Ki is less than 200 nM.
Compound `CC(C)(C)OC(=O)N1CCC(Oc2ccc3c(c2)CCC2(CCN(C4CCC4)CC2)O3)CC1` [Example 417, 1′-cyclobutyl-6-(piperidine-1-carboxylic acid tert-butyl ester-4-yloxy)-3,4-dihydro spiro-[2H-benzopyran-2,4′-piperidine]] gave a melting point of 118 to 120 °C. Besides, the Ki in data set [1] is less than 200 nM. For the same compound, at human H3 receptor, the Ki is less than 200 nM.
With `O=C(C1CCN(c2ccc3c(c2)CCC2(CCN(C4CCC4)CC2)O3)CC1)N1CCCC1` [Example 418], the melting point fell in the range of 290 to 292 °C. Further, the Ki in data set [1] was less than 200 nM. In addition, the Ki at human H3 receptor is less than 200 nM.
Take `O=c1ccc(N2CCN(c3ccc4c(c3)CCC3(CCN(C5CCC5)CC3)O4)CC2)n[nH]1` [Example 419]: the melting point lay in the range of 278 to 280 °C. In addition, the Ki in data set [1] was less than 200 nM. Also, the Ki on human H3 receptor was less than 200 nM.
`c1cc2c(cc1N1CCCC1)CCC1(CCN(C3CCC3)CC1)O2` [Example 420]: the melting point was > 275 °C (dec.). Also, the Ki in data set [1] is less than 200 nM. At human H3 receptor, the Ki was less than 200 nM.
`O=S1(=O)CCN(c2ccc3c(c2)COC2(CCN(C4CCC4)CC2)O3)CC1` [Example 421] came in with a melting point of 157 to 158 °C. In addition, the Ki in data set [1] was less than 200 nM. Also, the inhibitory constant (Ki) on human H3 receptor was less than 200 nM.
Consider `FC1(F)CCN(c2ccc3c(c2)COC2(CCN(C4CCC4)CC2)O3)CC1` [Example 422], for which the melting point was > 250 °C (dec.). Besides, the Ki in data set [1] lay within 200 to 1000 nM. For the same compound, the inhibition constant (Ki) at human H3 receptor was less than 200 nM.
As to `FC1(F)CCN(c2ccc3c(c2)COC2(CCN(C4CCC4)CC2)O3)C1` [Example 423], the melting point fell in the range of 217 to 221 °C. Also, in data set [1], the Ki was less than 200 nM. The inhibition constant Ki at human H3 receptor was less than 200 nM.

(Values after US8513232B2, “Substituted spirocyclic piperidine derivatives as histamine-3 (H3) receptor ligands” (Cephalon, Inc., priority 2008, dated 2013).)
